Tests used:
[1] = system: thromboxane A2 in platelets; conditions: Köfeler et al. 2000; cited from earlier work
S. aureus ATCC = assay: rifampicin resistance development, passaging experiment; type: cell-based; conditions: parallel culture with rifampicin-MHC doping
Description: (§1) 10 ml tubes with Müller-Hinton broth (MHB) was brought to a concentration of about 10^6 CPU with 0.01 ml of an overnight culture with S. epidermidis RP62A and S. aureus ATCC, and provided with the respective MHC of rifampicin and miconazole. An aliquot was taken from the overnight cultures, brought into new MHB tubes (about 10^6 CPU), and again incubated over night. This was repeated up to 50 times, and the resistant isolates were frozen.

S. epidermidis RP62A = assay: as above; type: cell-based; conditions: parallel culture with rifampicin-MHC doping
Description: as §1

Structure (SMILES)	inhibition of synthesis of thromboxane A2 in platelets [1]	resistance frequencies (S. aureus ATCC)	resistance frequencies (S. epidermidis RP62A)
Clc1ccccc1C(c1ccccc1)(c1ccccc1)n1ccnc1 [clotrimazole]	selectively inhibit	–	–
CO[C@H]1/C=C/O[C@@]2(C)Oc3c(C)c(O)c4c(O)c(c(/C=N/N5CCN(C)CC5)c(O)c4c3C2=O)NC(=O)/C(C)=C\C=C\[C@H](C)[C@H](O)[C@@H](C)[C@@H](O)[C@@H](C)[C@H](OC(C)=O)[C@@H]1C [rifampicin]	–	10^−6	10^−6
Clc1ccc(COC(Cn2ccnc2)c2ccc(Cl)cc2Cl)c(Cl)c1 (stereo not shown) [Miconazole, miconazole]	selectively inhibit	–	–

From patent US11185616B2, “Implantable medical products, a process for the preparation thereof, and use thereof” (priority 2016, dated 2021)
